Data set [1] concerns Bacillus anthracis. The data set is described as follows: Inhibition of Bacillus anthracis 7702 BA1977 assessed as induction of lysozyme sensitivity at 50 uM incubated for 250 mins under shaking condition measured every 30 mins.
The target in data set [2] is T1, Peptidoglycan-N-acetylglucosamine deacetylase BC_1974 (Bacillus cereus (strain ATCC 14579 / DSM 31 / JCM 2152 / NBRC 15305 /NCIMB 9373 / NRRL B-3711), UniProt Q81EJ6).
T1 sequence (Q81EJ6 whole entry): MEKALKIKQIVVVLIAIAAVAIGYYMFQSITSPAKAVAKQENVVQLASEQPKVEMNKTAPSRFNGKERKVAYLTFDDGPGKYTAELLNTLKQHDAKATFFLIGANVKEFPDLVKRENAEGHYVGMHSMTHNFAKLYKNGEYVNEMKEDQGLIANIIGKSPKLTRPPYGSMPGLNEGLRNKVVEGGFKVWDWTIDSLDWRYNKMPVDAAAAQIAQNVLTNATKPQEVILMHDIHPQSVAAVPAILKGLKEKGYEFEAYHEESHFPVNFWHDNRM
The data set is described as follows: Inhibition of recombinant Bacillus cereus BC1974 expressed in Escherichia coli using GlcNAc5 as substrate measured after 5 mins by fluorescamine based fluorescence assay.

Data set [3] addresses T2, Peptidoglycan-N-acetylglucosamine deacetylase BC_1960 (Bacillus cereus (strain ATCC 14579 / DSM 31 / JCM 2152 / NBRC 15305 /NCIMB 9373 / NRRL B-3711), UniProt Q81EK9).
T2 sequence (Q81EK9 whole entry): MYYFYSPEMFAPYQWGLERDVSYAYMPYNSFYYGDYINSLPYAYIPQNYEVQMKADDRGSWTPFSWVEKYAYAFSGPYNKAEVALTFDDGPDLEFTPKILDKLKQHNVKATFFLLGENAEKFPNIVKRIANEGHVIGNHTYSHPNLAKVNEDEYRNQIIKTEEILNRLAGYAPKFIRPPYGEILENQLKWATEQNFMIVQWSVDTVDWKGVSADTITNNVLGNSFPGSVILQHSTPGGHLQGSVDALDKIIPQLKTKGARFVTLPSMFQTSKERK
As to the kind of experiment: Inhibition of recombinant Bacillus cereus BC1960 expressed in Escherichia coli using GlcNAc5 as substrate measured after 10 mins by fluorescamine based fluorescence assay.

For data set [4], the target named is T1, Peptidoglycan-N-acetylglucosamine deacetylase BC_1974. The data set is described as follows: Competitive inhibition of recombinant Bacillus cereus BC1974 expressed in Escherichia coli using varying levels of GlcNAc5 as substrate measured after 5 mins in presence of fluorescamine by Line-weaver burk plot analysis. Particulars: read-out: Ki(app).
Data set [5] concerns the target T2, Peptidoglycan-N-acetylglucosamine deacetylase BC_1960. As to the kind of experiment: Competitive inhibition of recombinant Bacillus cereus BC1960 expressed in Escherichia coli using varying levels of GlcNAc5 as substrate measured after 10 mins in presence of fluorescamine by Line-weaver burk plot analysis. Particulars: read-out: Ki(app).
In data set [6] the test system is Bacillus cereus. As to the kind of experiment: Antibacterial activity against Bacillus cereus ATCC 14579 measured after 16 hrs in absence of lysozyme. The data set is classed as functional. The note with it: ATCC 14579, 16 h.
Data set [7] deals with Bacillus anthracis. As to the kind of experiment: Antibacterial activity against Bacillus anthracis 7702 measured after 16 hrs in absence of lysozyme. Type of data set: functional. Particulars: Bacillus anthracis, 7702, 16 h.
Data set [8] concerns Bacillus cereus. As to the kind of experiment: Bactericidal activity against Bacillus cereus ATCC 14579 measured after 72 hrs in absence of lysozyme. The note with it: ATCC 14579, 72 h. The data set is classed as functional.
Data set [9] concerns Bacillus anthracis. The data set is described as follows: Bactericidal activity against Bacillus anthracis 7702 measured after 72 hrs in absence of lysozyme. The data set is classed as functional. The note with it: Bacillus anthracis, 7702, 72 h.
Data set [10] concerns Bacillus cereus. The data set is described as follows: Antibacterial activity against Bacillus cereus ATCC 14579 measured after 16 hrs in presence of lysozyme. Type of data set: functional. Particulars: ATCC 14579, 16 h.
The test system of data set [11] is Bacillus anthracis. As to the kind of experiment: Antibacterial activity against Bacillus anthracis 7702 measured after 16 hrs in presence of lysozyme. The data set is classed as functional. Particulars: Bacillus anthracis, 7702, 16 h.
Data set [12] deals with Bacillus cereus. The data set is described as follows: Bactericidal activity against Bacillus cereus ATCC 14579 measured after 72 hrs in presence of lysozyme. The data set is classed as functional. The note with it: ATCC 14579, 72 h.
Data set [13] has as its system Bacillus anthracis. As to the kind of experiment: Bactericidal activity against Bacillus anthracis 7702 measured after 72 hrs in presence of lysozyme. The note with it: Bacillus anthracis, 7702, 72 h. The data set is classed as functional.
In data set [14] the test system is Bacillus cereus. As to the kind of experiment: Ratio of MBC to MIC for Bacillus cereus ATCC 14579 measured after 16 hrs in absence of lysozyme. The data set is classed as functional.
Data set [15] concerns Bacillus anthracis. As to the kind of experiment: Ratio of MBC to MIC for Bacillus anthracis 7702 measured after 16 hrs in absence of lysozyme. Type of data set: functional.
Data set [16] relates to Bacillus cereus. The data set is described as follows: Ratio of MBC to MIC for Bacillus cereus ATCC 14579 measured after 16 hrs in presence of lysozyme. The data set is classed as functional.
In data set [17] the test system is Bacillus anthracis. The data set is described as follows: Ratio of MBC to MIC for Bacillus anthracis 7702 measured after 16 hrs in presence of lysozyme. Type of data set: functional.
Data set [18] relates to Bacillus cereus. The data set is described as follows: Antibacterial activity against Bacillus cereus ATCC 14579 assessed as production of longer chains of daughter cells at 40 ug/ml incubated 16 hrs under shaking condition by scanning electron microscopic analysis. Type of data set: functional, organism-based.
Data set [19] has as its system Bacillus anthracis. The data set is described as follows: Inhibition of Bacillus anthracis 7702 BA1977 assessed as induction of lysozyme sensitivity at 10 to 50 uM incubated for 250 mins under shaking condition measured every 30 mins.
Compound in data set [20]: O=C(NO)c1ccc(-c2cccc3ccccc23)cc1
As to the kind of experiment: Competitive inhibition of recombinant Bacillus cereus BC1974 expressed in Escherichia coli assessed as substrate Km at 20 uM using varying levels of GlcNAc5 as substrate measured after 5 mins in presence of fluorescamine by Line-weaver burk plot analysis.

Compound in data set [21]: O=C(NO)c1ccc(-c2cccc3ccccc23)cc1
The data set is described as follows: Competitive inhibition of recombinant Bacillus cereus BC1974 expressed in Escherichia coli assessed as substrate Km at 40 uM using varying levels of GlcNAc5 as substrate measured after 5 mins in presence of fluorescamine by Line-weaver burk plot analysis.

The results in this text go back to ChEMBL document CHEMBL4118287, “Polysaccharide deacetylases serve as new targets for the design of inhibitors against Bacillus anthracis and Bacillus cereus” (Bioorg Med Chem, 2018).

≈ marks a conversion by molar mass, not a printed value. Calls of active or inactive are those of the source. No cut-off for these calls is given here.

For `O=C(NO)c1ccc(-c2cccc3ccccc23)cc1`, the inhibition result in data set [1] was “Active”. Besides, the results for the IC50 in [2] and in data set [3] were 43.3 µM and 132 µM, respectively. For the same molecule, the Ki in [4] amounted to 8.7 µM; in [5], 66 µM. Further, the MIC is 6.58 mg/L (≈ 25 µM) in [6], 7.89 mg/L (≈ 30 µM) in [7], 5.26 mg/L in data set [10] and 6.58 mg/L in data set [11]. The MBC in [8] came to 8.23 mg/L (≈ 31.3 µM); in data set [9], 8.23 mg/L (≈ 31.3 µM); in data set [12] it was 8.23 mg/L; in data set [13] it was 8.23 mg/L. In addition, the Ratio in [14], in data set [15], in data set [16] and in data set [17] was under 4 in each case. Also, the result in [18] was Active.
In the case of `O=C(NO)c1cccc2ccccc12`, the inhibition result in data set [19] is “inactive”.
As to `O=C(NO)c1cccc(-c2ccccc2)c1`, in data set [19], the inhibition result was “inactive”.
Take `O=C(NO)c1cccc(Oc2ccccc2)c1`: the inhibition entry in data set [19] was “inactive”.

B1: Peptidoglycan-N-acetylglucosamine deacetylase BC_1974 (Bacillus cereus (strain ATCC 14579 / DSM 31 / JCM 2152 / NBRC 15305 /NCIMB 9373 / NRRL B-3711)), Q81EJ6 (protein)
chain: T1 sequence (Q81EJ6 whole entry)
Take B1: the Km in [20] was 22.8 µM; in data set [21], 42 µM.
